Measurements from patent publication US20060142247A1, “Tricyclic heterocycles” (priority 2004, published 2006).

Target: T1, Aurora A (Homo sapiens, UniProt O14965)
T1 construct: C-terminally Histidine4 (His4)-tagged Aurora A full-length protein; His4 (C)
T1 sequence (O14965 1-403): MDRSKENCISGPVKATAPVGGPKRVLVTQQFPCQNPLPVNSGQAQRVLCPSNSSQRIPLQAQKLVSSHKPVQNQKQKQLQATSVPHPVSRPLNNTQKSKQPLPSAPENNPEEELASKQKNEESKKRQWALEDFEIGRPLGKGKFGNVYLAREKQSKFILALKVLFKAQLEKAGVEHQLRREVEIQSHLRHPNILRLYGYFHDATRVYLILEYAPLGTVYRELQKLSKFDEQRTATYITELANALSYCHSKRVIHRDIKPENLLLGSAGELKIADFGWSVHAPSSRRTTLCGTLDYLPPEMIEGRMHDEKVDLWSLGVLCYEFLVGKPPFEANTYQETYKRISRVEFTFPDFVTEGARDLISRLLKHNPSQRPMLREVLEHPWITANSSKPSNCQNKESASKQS
Assay: IC50 determination for inhibitors of Aurora A (96 MTP-ELISA)
Assay type: biochemical
Details: His4-tagged full-length Aurora A 250 ng/ml, PKB-GSK2 200 nM, ATP 4 μM, 90 min room temperature, read-out: IC50 Aurora A kinase inhibition
Procedure: Aurora A is a serine threonine kinase involved in spindle assembly and chromosome segregation. The assay is a typically ELISA-type assay where biotinylated substrate (PKB-GSK2) is phosphorylated. Phosphorylation is detected by peroxidase (POD) labelled polyclonal antibody (PAK<M-Ig>S-IgG-POD) and phosphopeptide monoclonal antibody (Mab) (MAK<P-GSK>M-27E5-IgG). The assay is validated for IC50-determination.
Assay plates: 96-well polystyrene plates, streptavidin-coated,
Samples: 10 mM in dimethylsulfoxide (DMSO)
Aurora A-His-4: C-terminally Histidine4 (His4)-tagged Aurora A full-length protein, stock solution 0.7 mg/ml, final conc.: 250 ng/ml
PKB-GSK2: biotinylated peptide derived from human GSK3-alpha sequence (Biotin-SGRARTSSFAEPGG-CONH2), stock solution 600 μM, final conc.: 200 nM
PAK<M-Ig>S-IgG-POD: Anti-mouse IgG, horse radish peroxidase(HRP)-linked Antibody, diluted in 3% BSA/PBS-T (1:10000), (Cell Signaling, Cat. No.: 7076)
MAK<P-GSK>M-27E5-IgG: Phospho-GSK-3-alpha (Ser 21) (27E5) Monoclonal Antibody, stock solution 1.85 mg/ml, diluted in 3% BSA/PBS-T (1:6000), final conc.: 0.31 μg/ml, (Cell Signaling, Cat. No.: 9337B)
ATP: Adenosine-5′-triphosphate 1 mM, diluted in kinase buffer, (Roche Diagnostics GmbH, Cat. No.: 127531-001,), final conc.: 4 μM
TRIS: 2-Amino-2-hydroxymethyl-1,3-propoanediol (“tris-(hydroxymethyl)-aminomethane”) (MERCK, Cat. No.: 108382.2500)
BSA: Bovine Serum Albumin Fraction V, fatty acid free (Roche Diagnostics GmbH, Cat. No. 9100221)
EDTA Titriplex III (di-Sodium-EDTA di-Hydrate), 120 mM, (MERCK, Cat. No.: 1.08418.1000)
ABTS buffer: ABTS (2,2′-azino-bis(3-ethylbenzthiazoline-6-sulfonic acid)) 16.7 mg/ml (Roche Diagnostics GmbH, Cat. No.: 1204530) • ABTS tablets: dissolve one ABTS tablet in 50 ml of working solution (ABTS buffer) (Roche Diagnostics GmbH, Cat. No.: 1112422 ) • Tween 20: Polysorbat 20 (Roche Diagnostics GmbH, Cat. No.: 10006394-001) • DTT: 1,4-Dithiothreitol (Roche Diagnostics GmbH, Cat. No.: 197777) • MgCl2×6H2O MERCK, Cat. No.: 105833.1000 • Kinase buffer: 50 mM TRIS, 10 mM MgCl2, 1 mM DTT, 0.1% Tween 20, pH 7.8 PBS-T (=Wash buffer) (PBS-T)10 g/l PBS(Phosphate buffered saline) with 0.033% Tween 20 • 3% BSA/PBS-T: 3% BSA dissolved in PBS-T Method
This assay is performed in 96-well format for IC50 determination with 5 samples (each with 8 concentrations by twofold testing), 100 μl incubation volume and the following plate layout:
S samples, with ATP, 1% DMSO, final conc.: a=100 μM, b=20 μM, c=4 μM, d=0.8 μM, e=0.16 μM, f=0.032 μM, g=0.0064 μM, h=0.00128 μM Step/Action • (1) Sample preparation: add 24 μl per well samples (descending sequence) diluted in kinase buffer to assay plate (final conc. for DMSO 1%). • 2. Add directly 16 μl Aurora-A-his-4 diluted in kinase buffer to assay plate. • 3. Add directly 40 μl per well PKB-GSK2/ATP mixture to assay plate, (final conc.: Aurora A=250 ng/ml, GSK2=200 nM, ATP=4 μM). Negative control: without ATP. • 4. Incubate assay plate for exactly 90 min at room temperature. • 5. Stop reaction by adding 20 μl EDTA in all wells. • 6. Wash assay plate 3× with 200 μl washing buffer per well. • 7. Add 100 μl MAK<P-GSK>M27E5-IgG (1:10000) and PAK<M-Ig>S-IgG-POD (1:6000) dissolved in 3% BSA/PBS-T to assay plate per well. • 8. Incubate assay plate for 60 min at room temperature. • 9. Wash assay plate 3× with 200 μl washing buffer per well • 10. Add 100 μl ABTS solution to assay plate per well, incubate for approx. 4 min at RT on MTP shaker. • 11. Measure absorption at 405/492 nm. • 12. Calculate % inhibition as: (1−(Esample−ENC)/(EPC−ENC))×100 1)
13. Calculate IC50 using a non-linear curve fit (XLfit software (ID Business Solution Ltd., Guilford, Surrey, UK))

| IC50 [nM] | SMILES |
| --- | --- |
| 1 to 100 | C=CCN1C(=O)C(C)(C)c2cc3nc(-c4n[nH]c5ccccc45)[nH]c3cc21 [Example 2, 5-Allyl-2-(1H-indazol-3-yl)-7,7-dimethyl-5,7-dihydro-3H-imidazo[4,5-f]indol-6-one] |
| 1 to 100 | COCCOCCN1C(=O)C(C)(C)c2cc3nc(-c4n[nH]c5ccccc45)[nH]c3cc21 [Example 17, 2-(1H-Indazol-3-yl)-5-[2-(2-methoxy-ethoxy)-ethyl]-7,7-dimethyl-5,7-dihydro-3H-imidazo[4,5-f]indol-6-one] |
| 1 to 100 | CC1(C)C(=O)N(CC(=O)NO)c2cc3[nH]c(-c4n[nH]c5ccccc45)nc3cc21 [Example 49, N-Hydroxy-2-[2-(1H-indazol-3-yl)-7,7-dimethyl-6-oxo-6,7-dihydro-3H-imidazo[4,5-f]indol-5-yl]-acetamide] |
| 1 to 100 | CC1(C)C(=O)N(CC(O)CO)c2cc3[nH]c(-c4n[nH]c5ccccc45)nc3cc21 (centres unmarked) [Example 35, 5-(2,3-Dihydroxy-propyl)-2-(1H-indazol-3-yl)-7,7-dimethyl-5,7-dihydro-3H-imidazo [4,5-f]indol-6-one] |
| 1 to 100 | CC1(C)C(=O)N(CC(=O)Nc2ccccc2)c2cc3[nH]c(-c4n[nH]c5ccccc45)nc3cc21 [Example 43, 2-[2-(1H-Indazol-3-yl)-7,7-dimethyl-6-oxo-6,7-dihydro-3H-imidazo[4,5-f]indol-5-yl]-N-phenyl-acetamide] |
| 1 to 100 | CC1(C)C(=O)N(CCO[Si](C)(C)C(C)(C)C)c2cc3[nH]c(-c4n[nH]c5ccccc45)nc3cc21 [Example 28, 5-[2-(tert-Butyl-dimethyl-silanyloxy)-ethyl]-2-(1H-indazol-3-yl)-7,7-dimethyl-5,7-dihydro-3H-imidazo[4,5-f]indol-6-one] |
| 1 to 100 | CCCN1C(=O)C(C)(C)c2cc3nc(-c4n[nH]c5ccccc45)[nH]c3cc21 [Example 5, 2-(1H-indazol-3-yl)-7,7-dimethyl-5-propyl-5,7-dihydro-3H-imidazo[4,5-f]indol-6-one] |
| 1 to 100 | CC1(C)C(=O)N(CCCN2CCCCC2)c2cc3[nH]c(-c4n[nH]c5ccccc45)nc3cc21 [Example 19, 2-(1H-Indazol-3-yl)-7,7-dimethyl-5-(3-piperidin-1-yl-propyl)-5,7-dihydro-3H-imidazo[4,5-f]indol-6-one] |
| 1 to 100 | CC1(C)C(=O)N(CCO)c2cc3[nH]c(-c4n[nH]c5ccccc45)nc3cc21 [Example 34, 5-(2-Hydroxy-ethyl)-2-(1H-indazol-3-yl)-7,7-dimethyl-5,7-dihydro-3H-imidazo[4,5-f]indol-6-one] |
| 28 | CC(C)N1C(=O)C(C)(C)c2cc3nc(-c4n[nH]c5ccccc45)[nH]c3cc21 [Example 6, 2-(1H-indazol-3-yl)-5-isopropyl-7,7-dimethyl-5,7-dihydro-3H-imidazo[4,5-f]indol-6-one] |
| 100 to 250 | CC1C(=O)Nc2cc3[nH]c(-c4n[nH]c5ccccc45)nc3cc21 (centres unmarked) [Example 11, 2-(1H-Indazol-3-yl)-7-methyl-5,7-dihydro-3H-imidazo[4,5-f]indol-6-one] |
| 1 to 100 | CC1(C)C(=O)N(CC(=O)NCc2ccccc2)c2cc3[nH]c(-c4n[nH]c5ccccc45)nc3cc21 [Example 39, N-Benzyl-2-[2-(1H-indazol-3-yl)-7,7-dimethyl-6-oxo-6,7-dihydro-3H-imidazo[4,5-f]indol-5-yl]-acetamide] |
| 1 to 100 | CC1(C)C(=O)N(CC(=O)N2CCOCC2)c2cc3[nH]c(-c4n[nH]c5ccccc45)nc3cc21 [Example 40, 2-(1H-Indazol-3-yl)-7,7-dimethyl-5-(2-morpholin-4-yl-2-oxo-ethyl)-5,7-dihydro-3H-imidazo[4,5-f]indol-6-one] |
| 1 to 100 | CC1(C)C(=O)N(CC#N)c2cc3[nH]c(-c4n[nH]c5ccccc45)nc3cc21 [Example 24, [2-(1H-Indazol-3-yl)-7,7-dimethyl-6-oxo-6,7-dihydro-3H-imidazo[4,5-f]indol-5-yl]-acetonitrile] |
| 100 to 250 | CCC1C(=O)Nc2cc3nc(-c4[nH]nc5ccccc45)[nH]c3cc21 (centres unmarked) [Example 13, 7-Ethyl-2-(1H-indazol-3-yl)-5,7-dihydro-3H-imidazo[4,5-f]indol-6-one] |
| 1 to 100 | CCOC(=O)CN1C(=O)C(C)(C)c2cc3nc(-c4n[nH]c5ccccc45)[nH]c3cc21 [Example 23, [2-(1H-Indazol-3-yl)-7,7-dimethyl-6-oxo-6,7-dihydro-3H-imidazo[4,5-f]indol-5-yl]-acetic acid ethyl ester] |
| 100 to 250 | CC1(C)C(=O)N(Cc2ccccc2)c2cc3[nH]c(-c4n[nH]c5ccccc45)nc3cc21 [Example 26, 5-Benzyl-2-(1H-indazol-3-yl)-7,7-dimethyl-5,7-dihydro-3H-imidazo[4,5-f]indol-6-one] |
| 1 to 100 | CC1(C)C(=O)N(CCN)c2cc3[nH]c(-c4n[nH]c5ccccc45)nc3cc21 [Example 52, 5-(2-Amino-ethyl)-2-(1H-indazol-3-yl)-7,7-dimethyl-5,7-dihydro-3H-imidazo[4,5-f]indol-6-one] |
| 1 to 100 | CC1(C)C(=O)Nc2cc3[nH]c(-c4n[nH]c5ccccc45)nc3cc21 [Example 8, 2-(1H-indazol-3-yl)-7,7-dimethyl-5,7-dihydro-3H-imidazo[4,5-f]indol-6-one] |
| 14 | CC1(C)C(=O)N(CCCN2CCOCC2)c2cc3[nH]c(-c4n[nH]c5ccccc45)nc3cc21 [Example 7, 2-(1H-indazol-3-yl)-7,7-dimethyl-5-(3-morpholin-4-yl-propyl)-5,7-dihydro-3H-imidazo[4,5-f]indol-6-one] |
| 1 to 100 | C=CCCN1C(=O)C(C)(C)c2cc3nc(-c4n[nH]c5ccccc45)[nH]c3cc21 [Example 15, 5-But-3-enyl-2-(1H-indazol-3-yl)-7,7-dimethyl-5,7-dihydro-3H-imidazo[4,5-f]indol-6-one] |
| 1 to 100 | CC1(C)C(=O)N(Cc2ccc(S(C)(=O)=O)cc2)c2cc3[nH]c(-c4n[nH]c5ccccc45)nc3cc21 [Example 27, 2-(1H-Indazol-3-yl)-5-(4-methanesulfonyl-benzyl)-7,7-dimethyl-5,7-dihydro-3H-imidazol[4,5-f]indol-6-one] |
| 1 to 100 | CC1(C)C(=O)N(CC(=O)O)c2cc3[nH]c(-c4n[nH]c5ccccc45)nc3cc21 [Example 36, [2-(1H-Indazol-3-yl)-7,7-dimethyl-6-oxo-6,7-dihydro-3H-imidazo[4,5-f]indol-5-yl]-acetic acid] |
